Assay results published in ChEMBL document CHEMBL5321227, “Lysosome-targeting phenalenones as efficient type I/II photosensitizers for anticancer photodynamic therapy” (Eur J Med Chem, 2023).
pIC50: −log10 of the molar value. One block for each molecule: values may come before it. Active and inactive are the calls of the source. No cut-off for these calls is given here.

Key:
[1] = Induction of singlet oxygen production in ethanol assessed as change in absorption spectra at 380nm under photoirradiation with 550nm and 10 J/cm^2 LED light for 2 to 20 mins by ABDA based microplate reader analysis; type: functional; details: time 2-20 min
MDA-MB-231 [2] = assay: Phototoxicity against human MDA-MB-231 cells assessed as reduction in cell viability incubated for 24 hrs in presence of irradiation with 500 to 700nm and 12 J/cm^2 LED light by CCK-8 assay; type: functional, cell-based
4T1 [3] = assay: Anticancer activity against mouse 4T1 cells assessed as fold increase in gamma-H2A.X protein expression at 1 uM preincubated for 2 hrs followed by photoirradiation with 500 to 700nm and 12 J/cm^2 LED light and measured after 24 hrs by Western blot analysis relative to control; type: functional; details: time 26 hrs
[4] = Induction of superoxide anion radical production in aqueous solution assessed as increase in fluorescence intensity at 5 uM under photoirradiation with 550nm and 10 J/cm^2 LED light and measured after 8 mins by DHR123 based fluorescence spectroscopic analysis
4T1 [5] = assay: Anticancer activity against mouse 4T1 cells assessed as reduction in cell viability incubated for 24 hrs in presence of irradiation with 500 to 700nm and 12 J/cm^2 LED light by CCK-8 assay; type: functional, cell-based; details: 4T1, light or radiation study
[6] = Drug uptake in human MDA-MB-231 cells assessed as increase in intracellular uptake at 5 uM incubated for 2 hrs by flow cytometry analysis; type: ADME, cell-based; details: mda-mb-231, 2 h
MDA-MB-231 [7] = assay: Anticancer activity against human MDA-MB-231 cells assessed as reduction in cell viability at 1 uM incubated for 24 hrs in presence of irradiation with 500 to 700nm and 12 J/cm^2 LED light by CCK-8 assay; type: functional, cell-based
[8] = Photostability of compound in EtOH assessed as compound decomposition at 50 uM incubated for 5 to 20 mins under photoirradiation with 550nm and 10 J/cm^2 LED light by UV-visible spectroscopic analysis; type: physicochemical; details: time 5-20 min
[9] = Drug localization in lysosome of human MDA-MB-231 cells assessed as increase in apparent yellow fluorescent signal at 5 uM incubated for 2 hrs by Lyso-Tracker Green, ER-Tracker Green, Mito-Tracker Green and Hoechst 33342 staining based confocal laser scanning microscopy; type: ADME, subcellular; details: mda-mb-231, 2 h
[10] = Drug uptake in human MDA-MB-231 cells assessed as increase in intracellular uptake at 5 uM incubated for 10 mins by flow cytometry analysis; type: ADME, cell-based; details: mda-mb-231, 10 min
4T1 [11] = assay: Anticancer activity against mouse 4T1 cells assessed as fold increase in cleaved caspase-3 protein expression at 1 uM preincubated for 2 hrs followed by photoirradiation with 500 to 700nm and 12 J/cm^2 LED light and measured after 24 hrs by Western blot analysis relative to control; type: functional; details: time 26 hrs
4T1 [12] = assay: Anticancer activity against mouse 4T1 cells assessed as reduction in cell viability at 1 uM incubated for 24 hrs under photoirradiation with 500 to 700nm and 12 mW/cm^2 LED light by CCK-8 assay; type: functional, cell-based
MDA-MB-231 [13] = assay: Anticancer activity against human MDA-MB-231 cells assessed as reduction in cell viability incubated for 24 hrs by CCK-8 assay; type: functional, cell-based; details: MDA-MB-231, 24 h
MDA-MB-231 [14] = assay: Induction of intracellular ROS generation in human MDA-MB-231 cells assessed as fold increase in intracellular ROS level at 2.5 uM incubated for 2 hrs followed by under photoirradiation with 500 to 700nm and 12 J/cm^2 LED light by DCFH-DA staining based fluorometric analysis relative dark control group; type: functional
MDA-MB-231 [15] = assay: Anticancer activity against human MDA-MB-231 cells assessed as reduction in cell viability incubated for 24 hrs in presence of irradiation with 500 to 700nm and 12 J/cm^2 LED light by CCK-8 assay; type: functional, cell-based; details: MDA-MB-231, light or radiation study
[16] = Drug metabolism in human MDA-MB-231 cells assessed as increase in SR expression at 5 uM incubated for 12 hrs by flow cytometry analysis; type: ADME, cell-based; details: mda-mb-231, 12 h
[17] = Stability of compound in H2O2 at 10 uM incubated for 30 mins by fluorescence assay; type: physicochemical; details: 0.5 h
[18] = Induction of singlet oxygen production in ethanol assessed as singlet oxygen quantum yield at 410nm under photoirradiation with 550nm and 10 mW/cm^2 LED light for 10 to 80 secs by DPBF based microplate reader analysis; type: functional; details: time 10-80 sec
4T1 [19] = assay: Anticancer activity against mouse 4T1 cells assessed as reduction in cell viability at 0.01 to 10 uM incubated for 24 hrs by CCK-8 assay; type: functional, cell-based; details: dose 0.01-10 µM
[20] = Drug metabolism in carboxylesterase (unknown origin) assessed as formation of active photosensitizer 6-amino-5-iodo-1H-phenalen-1-one by measuring increase in fluorescence at 610nM at 10 uM under by fluorescence assay; type: ADME; details: human
[21] = Stability of compound in gamma-glutamyl transpeptidase at 10 uM incubated for 30 mins by fluorescence assay; type: physicochemical; details: 0.5 h
4T1 [22] = assay: Anticancer activity against mouse 4T1 cells assessed as reduction in cell viability preincubated for 12 hrs followed by photoirradiation with 500 to 700nm and 12 J/cm^2 LED light for 24 hrs by CCK-8 assay; type: functional, cell-based; details: 4T1, light or radiation study
MDA-MB-231 [23] = assay: Anticancer activity against human MDA-MB-231 cells assessed as reduction in cell viability preincubated for 12 hrs followed by photoirradiation with 500 to 700nm and 12 J/cm^2 LED light for 24 hrs by CCK-8 assay; type: functional, cell-based; details: MDA-MB-231, light or radiation study
MDA-MB-231 [24] = assay: Anticancer activity against human MDA-MB-231 cells assessed as number of dead cells at 2.5 uM preincubated for 12 hrs followed by photoirradiation with 500 to 700nm and 12 J/cm^2 LED light for 10 mins by calcein-AM and propidium iodide staining based flow cytometry; type: functional, cell-based; details: time 12.2 hrs
MDA-MB-231 [25] = assay: Anticancer activity against human MDA-MB-231 cells assessed as reduction in cell viability at 0.01 to 10 uM incubated for 24 hrs by CCK-8 assay; type: functional, cell-based; details: dose 0.01-10 µM
[26] = Stability of compound in GSH at 10 uM incubated for 30 mins by fluorescence assay; type: physicochemical; details: 0.5 h
MDA-MB-231 [27] = assay: Anticancer activity against human MDA-MB-231 cells assessed as number of dead cells at 2.5 uM incubated for 12 hrs by calcein-AM and propidium iodide staining based flow cytometry; type: functional, cell-based
[28] = Stability of compound in various pH; type: physicochemical
[29] = Drug metabolism in carboxylesterase (unknown origin) assessed as formation of active photosensitizer 6-amino-5-iodo-1H-phenalen-1-one at 10 uM under by LC-MS/MS analysis assay; type: ADME; details: human

Compound: Nc1ccc2c3c(cccc13)C(=O)C=C2
- Activity [1]: inactive

- pIC50 (4T1 [5]): 6.23
- Drug uptake [6]: Active
- Stability [8]: Stable
- Drug uptake [9]: Active
- Drug uptake [10]: Active
- pIC50 (MDA-MB-231 [13]): < 4.30
- pIC50 (MDA-MB-231 [15]): 6.18
Compound: Nc1c(I)cc2c3c(cccc13)C(=O)C=C2
- Activity (MDA-MB-231 [2]): Active
- fold change (FC) (4T1 [3]): 2.36
- Activity [4]: Active
- Activity (MDA-MB-231 [7]): Active
- fold change (FC) (4T1 [11]): 3.09
- Activity [1]: Active
- Activity (4T1 [12]): Active
- fold change (FC) (MDA-MB-231 [14]): 5.54

- Drug metabolism [16]: Metabolite_Detected
- Stability [17]: Stable
- Stability [21]: Stable
- pIC50 (4T1 [22]): 5.32
- pIC50 (MDA-MB-231 [23]): 5.40
- Stability [8]: Stable
- Stability [26]: Stable
- Stability [28]: Stable
Compound: O=C(Nc1c(I)cc2c3c(cccc13)C(=O)C=C2)c1ccccc1
- Activity [18]: 0.1
- Activity (4T1 [19]): Active
- Drug metabolism [20]: Metabolite_Detected
- Activity (MDA-MB-231 [24]): Active
- Activity (MDA-MB-231 [25]): Active
- Activity (MDA-MB-231 [27]): inactive
- Drug metabolism [29]: Metabolite_Detected
